For 5 molecules, Kd results are on record in ChEMBL document CHEMBL3991601, “The target landscape of clinical kinase drugs” (Science, 2017).

The target of experiment [1] is Mitogen-activated protein kinase 14 (Homo sapiens, UniProt Q16539).
Experiment [2] deals with Epidermal growth factor receptor (Homo sapiens, UniProt P00533).
For experiment [3], the target named is Dual specificity protein kinase CLK3 (Homo sapiens, UniProt P49761). The class given is subcellular, K-562, COLO 205, SK-N-BE(2) and MV-4-11, Cell lysate. The conditions noted are these: read-out: Kd apparent.
The target in experiment [4] is Choline-phosphate cytidylyltransferase A (Homo sapiens, UniProt P49585).
In experiment [5] the target is Cell division cycle 7-related protein kinase (Homo sapiens, UniProt O00311).
Cell division cycle 7-related protein kinase, sequence (O00311 whole entry): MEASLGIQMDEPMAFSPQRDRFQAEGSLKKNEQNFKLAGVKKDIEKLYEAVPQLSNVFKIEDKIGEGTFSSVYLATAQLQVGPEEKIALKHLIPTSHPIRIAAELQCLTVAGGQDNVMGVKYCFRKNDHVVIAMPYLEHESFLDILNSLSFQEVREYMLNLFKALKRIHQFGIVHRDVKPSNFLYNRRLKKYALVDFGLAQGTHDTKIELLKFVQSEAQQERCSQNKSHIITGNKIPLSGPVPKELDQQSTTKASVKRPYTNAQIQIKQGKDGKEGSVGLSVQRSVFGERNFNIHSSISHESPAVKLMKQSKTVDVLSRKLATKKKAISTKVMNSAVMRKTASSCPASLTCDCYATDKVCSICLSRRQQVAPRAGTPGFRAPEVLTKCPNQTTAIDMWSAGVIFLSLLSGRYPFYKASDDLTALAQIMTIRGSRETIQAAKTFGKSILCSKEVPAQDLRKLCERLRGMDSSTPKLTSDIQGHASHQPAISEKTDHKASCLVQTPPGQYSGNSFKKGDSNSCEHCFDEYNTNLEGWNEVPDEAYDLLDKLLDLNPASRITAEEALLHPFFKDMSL
For experiment [6], the target named is Guanine nucleotide-binding protein G(i) subunit alpha-2 (Homo sapiens, UniProt P04899).
Guanine nucleotide-binding protein G(i) subunit alpha-2, sequence (P04899 whole entry): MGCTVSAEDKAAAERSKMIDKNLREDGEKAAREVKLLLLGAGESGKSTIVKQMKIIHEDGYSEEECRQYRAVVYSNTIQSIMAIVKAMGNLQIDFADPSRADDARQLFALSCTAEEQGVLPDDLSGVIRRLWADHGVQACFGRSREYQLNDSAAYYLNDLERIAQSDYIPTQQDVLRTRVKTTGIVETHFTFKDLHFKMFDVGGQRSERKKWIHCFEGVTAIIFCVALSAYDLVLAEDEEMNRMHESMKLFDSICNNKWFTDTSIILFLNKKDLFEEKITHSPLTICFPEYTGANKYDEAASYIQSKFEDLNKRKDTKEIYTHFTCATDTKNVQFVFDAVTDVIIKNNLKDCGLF
In experiment [7] the target is Membrane-associated progesterone receptor component 1 (Homo sapiens, UniProt O00264).
For experiment [8], the target named is Dual specificity protein kinase CLK2 (Homo sapiens, UniProt P49760).
Dual specificity protein kinase CLK2, sequence (P49760 whole entry): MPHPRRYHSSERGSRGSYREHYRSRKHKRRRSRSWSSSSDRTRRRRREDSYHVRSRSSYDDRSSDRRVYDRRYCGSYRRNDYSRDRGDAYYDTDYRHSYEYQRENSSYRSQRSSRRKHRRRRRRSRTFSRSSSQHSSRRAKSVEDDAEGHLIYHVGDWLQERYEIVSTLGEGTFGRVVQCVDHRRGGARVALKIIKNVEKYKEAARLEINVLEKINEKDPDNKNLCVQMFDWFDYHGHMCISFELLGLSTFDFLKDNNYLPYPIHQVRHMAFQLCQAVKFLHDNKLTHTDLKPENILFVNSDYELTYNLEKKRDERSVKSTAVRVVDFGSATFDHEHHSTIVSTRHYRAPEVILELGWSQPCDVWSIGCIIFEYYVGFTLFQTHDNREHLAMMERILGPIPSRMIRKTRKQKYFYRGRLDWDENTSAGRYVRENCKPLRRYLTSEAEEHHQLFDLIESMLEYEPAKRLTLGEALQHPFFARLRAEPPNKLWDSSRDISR
Experiment [9] deals with Proto-oncogene tyrosine-protein kinase receptor Ret (Homo sapiens, UniProt P07949).
In experiment [10] the target is Obg-like ATPase 1 (Homo sapiens, UniProt Q9NTK5).
Obg-like ATPase 1, sequence (Q9NTK5 whole entry, looked up): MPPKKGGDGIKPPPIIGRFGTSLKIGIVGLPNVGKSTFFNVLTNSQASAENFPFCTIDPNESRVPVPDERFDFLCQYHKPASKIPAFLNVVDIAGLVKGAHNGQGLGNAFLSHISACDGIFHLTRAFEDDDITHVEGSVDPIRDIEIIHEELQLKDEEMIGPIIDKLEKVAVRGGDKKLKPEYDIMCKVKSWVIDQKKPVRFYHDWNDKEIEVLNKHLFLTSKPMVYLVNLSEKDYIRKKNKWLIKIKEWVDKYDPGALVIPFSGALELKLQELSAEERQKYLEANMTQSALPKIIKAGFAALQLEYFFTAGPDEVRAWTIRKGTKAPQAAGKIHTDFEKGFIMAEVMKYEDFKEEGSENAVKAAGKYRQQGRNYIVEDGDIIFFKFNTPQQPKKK
Experiment [11] deals with Ephrin type-A receptor 7 (Homo sapiens, UniProt Q15375).
Ephrin type-A receptor 7, sequence (Q15375 whole entry): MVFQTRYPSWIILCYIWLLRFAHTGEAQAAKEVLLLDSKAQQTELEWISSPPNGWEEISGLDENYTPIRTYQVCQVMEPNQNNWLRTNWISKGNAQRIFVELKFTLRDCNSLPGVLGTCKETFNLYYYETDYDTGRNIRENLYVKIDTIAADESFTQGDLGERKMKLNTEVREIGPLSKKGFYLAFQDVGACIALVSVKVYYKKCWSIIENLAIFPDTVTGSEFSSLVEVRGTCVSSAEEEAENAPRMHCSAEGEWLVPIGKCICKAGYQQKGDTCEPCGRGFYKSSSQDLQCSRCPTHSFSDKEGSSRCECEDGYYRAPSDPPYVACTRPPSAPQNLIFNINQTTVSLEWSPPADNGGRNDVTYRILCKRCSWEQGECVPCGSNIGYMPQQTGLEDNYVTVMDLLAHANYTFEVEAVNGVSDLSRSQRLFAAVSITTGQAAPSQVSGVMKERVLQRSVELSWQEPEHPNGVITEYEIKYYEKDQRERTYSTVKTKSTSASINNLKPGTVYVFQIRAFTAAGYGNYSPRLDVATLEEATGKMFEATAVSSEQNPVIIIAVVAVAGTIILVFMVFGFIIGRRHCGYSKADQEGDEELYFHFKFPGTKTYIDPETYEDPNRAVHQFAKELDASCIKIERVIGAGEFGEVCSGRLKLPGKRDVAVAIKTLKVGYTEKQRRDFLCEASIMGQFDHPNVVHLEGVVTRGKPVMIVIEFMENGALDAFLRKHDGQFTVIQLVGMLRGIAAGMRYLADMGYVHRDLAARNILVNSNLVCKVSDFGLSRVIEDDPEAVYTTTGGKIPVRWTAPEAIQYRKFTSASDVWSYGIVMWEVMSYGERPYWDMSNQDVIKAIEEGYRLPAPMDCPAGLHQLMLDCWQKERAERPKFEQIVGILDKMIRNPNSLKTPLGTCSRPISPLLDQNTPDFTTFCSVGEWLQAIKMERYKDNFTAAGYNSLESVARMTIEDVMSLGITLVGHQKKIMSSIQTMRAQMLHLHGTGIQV
The target of experiment [12] is Protein kinase C theta type (Homo sapiens, UniProt Q04759).
Experiment [13] deals with T1, UMP-CMP kinase (Homo sapiens, UniProt P30085).
T1 sequence (P30085 whole entry): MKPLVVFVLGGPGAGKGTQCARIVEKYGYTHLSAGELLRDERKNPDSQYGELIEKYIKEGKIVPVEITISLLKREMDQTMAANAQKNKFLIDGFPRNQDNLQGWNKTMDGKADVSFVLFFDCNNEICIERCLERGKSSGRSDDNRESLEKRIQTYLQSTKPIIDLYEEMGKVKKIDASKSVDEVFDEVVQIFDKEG

Experiment [14] has as its target Serine/threonine-protein kinase 24 (Homo sapiens, UniProt Q9Y6E0).
Experiment [15] addresses T2, Adenine phosphoribosyltransferase (Homo sapiens, UniProt P07741).
T2 sequence (P07741 whole entry): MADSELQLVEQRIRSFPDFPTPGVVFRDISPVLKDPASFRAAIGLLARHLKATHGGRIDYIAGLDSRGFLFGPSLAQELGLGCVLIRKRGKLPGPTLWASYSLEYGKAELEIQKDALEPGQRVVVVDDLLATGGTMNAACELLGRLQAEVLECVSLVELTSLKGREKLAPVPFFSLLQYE

Experiment [16] addresses G protein-coupled receptor kinase 6 (Homo sapiens, UniProt P43250).
The target of experiment [17] is Serine/threonine-protein kinase PLK1 (Homo sapiens, UniProt P53350).
Experiment [18] has as its target T3, Long-chain-fatty-acid--CoA ligase 5 (Homo sapiens, UniProt Q9ULC5).
T3 sequence (Q9ULC5 whole entry): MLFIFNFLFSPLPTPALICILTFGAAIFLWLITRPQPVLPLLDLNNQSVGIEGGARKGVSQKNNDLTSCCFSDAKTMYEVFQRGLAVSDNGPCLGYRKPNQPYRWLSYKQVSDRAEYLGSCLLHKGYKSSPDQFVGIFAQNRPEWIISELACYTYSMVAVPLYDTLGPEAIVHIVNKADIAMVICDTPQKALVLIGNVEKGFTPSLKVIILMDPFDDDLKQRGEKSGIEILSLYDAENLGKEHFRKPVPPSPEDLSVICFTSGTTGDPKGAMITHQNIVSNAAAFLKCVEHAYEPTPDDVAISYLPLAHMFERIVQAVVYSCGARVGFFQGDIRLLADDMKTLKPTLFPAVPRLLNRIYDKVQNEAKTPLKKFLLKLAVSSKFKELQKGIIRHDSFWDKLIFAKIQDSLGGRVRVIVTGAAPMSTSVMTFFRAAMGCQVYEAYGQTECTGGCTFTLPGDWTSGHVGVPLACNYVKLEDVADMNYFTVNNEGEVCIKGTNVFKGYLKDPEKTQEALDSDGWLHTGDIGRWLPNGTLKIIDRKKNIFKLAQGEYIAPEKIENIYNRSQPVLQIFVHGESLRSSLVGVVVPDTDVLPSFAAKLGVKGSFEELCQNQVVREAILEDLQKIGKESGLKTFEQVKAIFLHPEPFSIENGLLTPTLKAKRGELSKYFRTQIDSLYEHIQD

Experiment [19] has as its target Phosphatidylethanolamine-binding protein 1 (Homo sapiens, UniProt P30086).

Activity calls are given as the source filed them.
Note: in the data inactive means no Kd found up to 30 µM.

Epidermal growth factor receptor, sequence (P00533 whole entry): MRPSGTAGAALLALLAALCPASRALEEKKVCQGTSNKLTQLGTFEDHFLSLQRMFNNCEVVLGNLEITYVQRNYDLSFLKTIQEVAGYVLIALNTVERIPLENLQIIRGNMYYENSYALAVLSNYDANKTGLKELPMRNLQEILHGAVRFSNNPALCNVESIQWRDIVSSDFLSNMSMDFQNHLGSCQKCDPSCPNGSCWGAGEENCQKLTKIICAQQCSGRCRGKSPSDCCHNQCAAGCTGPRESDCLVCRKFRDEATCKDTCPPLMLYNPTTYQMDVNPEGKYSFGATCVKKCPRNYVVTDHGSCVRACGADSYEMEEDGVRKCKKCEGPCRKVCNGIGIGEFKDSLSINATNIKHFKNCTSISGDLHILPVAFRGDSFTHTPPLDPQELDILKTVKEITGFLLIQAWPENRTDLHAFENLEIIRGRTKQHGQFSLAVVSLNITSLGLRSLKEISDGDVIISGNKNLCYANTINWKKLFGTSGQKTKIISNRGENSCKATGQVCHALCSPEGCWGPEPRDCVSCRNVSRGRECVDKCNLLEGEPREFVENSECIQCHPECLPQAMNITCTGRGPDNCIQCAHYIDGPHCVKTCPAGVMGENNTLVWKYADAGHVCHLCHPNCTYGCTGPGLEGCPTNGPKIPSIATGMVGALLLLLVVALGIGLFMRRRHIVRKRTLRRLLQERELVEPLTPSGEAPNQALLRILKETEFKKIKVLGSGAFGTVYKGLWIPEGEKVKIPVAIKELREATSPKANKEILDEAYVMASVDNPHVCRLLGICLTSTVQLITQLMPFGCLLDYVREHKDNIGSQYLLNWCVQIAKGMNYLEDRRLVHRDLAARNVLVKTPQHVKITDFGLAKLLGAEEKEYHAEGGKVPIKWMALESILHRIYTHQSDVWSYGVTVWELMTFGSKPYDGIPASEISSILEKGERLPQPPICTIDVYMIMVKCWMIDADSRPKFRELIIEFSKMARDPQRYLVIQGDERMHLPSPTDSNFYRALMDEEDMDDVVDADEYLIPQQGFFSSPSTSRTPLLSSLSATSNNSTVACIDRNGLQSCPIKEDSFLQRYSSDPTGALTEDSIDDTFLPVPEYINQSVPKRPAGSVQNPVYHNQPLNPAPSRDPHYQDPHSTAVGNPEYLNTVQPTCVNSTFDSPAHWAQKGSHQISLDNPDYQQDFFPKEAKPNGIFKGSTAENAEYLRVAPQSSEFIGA
Serine/threonine-protein kinase 24, sequence (Q9Y6E0 whole entry): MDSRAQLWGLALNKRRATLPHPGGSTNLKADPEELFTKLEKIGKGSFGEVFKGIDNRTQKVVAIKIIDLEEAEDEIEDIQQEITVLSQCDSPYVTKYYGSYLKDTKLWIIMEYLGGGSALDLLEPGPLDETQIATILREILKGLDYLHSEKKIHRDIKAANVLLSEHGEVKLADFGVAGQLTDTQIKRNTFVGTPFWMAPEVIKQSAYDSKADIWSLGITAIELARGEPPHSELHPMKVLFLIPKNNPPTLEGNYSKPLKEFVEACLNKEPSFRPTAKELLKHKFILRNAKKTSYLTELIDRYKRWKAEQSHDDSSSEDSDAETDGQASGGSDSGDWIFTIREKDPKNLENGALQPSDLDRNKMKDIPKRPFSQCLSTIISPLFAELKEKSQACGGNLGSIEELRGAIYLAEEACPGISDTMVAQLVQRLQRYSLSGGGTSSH
Mitogen-activated protein kinase 14, sequence (Q16539 whole entry): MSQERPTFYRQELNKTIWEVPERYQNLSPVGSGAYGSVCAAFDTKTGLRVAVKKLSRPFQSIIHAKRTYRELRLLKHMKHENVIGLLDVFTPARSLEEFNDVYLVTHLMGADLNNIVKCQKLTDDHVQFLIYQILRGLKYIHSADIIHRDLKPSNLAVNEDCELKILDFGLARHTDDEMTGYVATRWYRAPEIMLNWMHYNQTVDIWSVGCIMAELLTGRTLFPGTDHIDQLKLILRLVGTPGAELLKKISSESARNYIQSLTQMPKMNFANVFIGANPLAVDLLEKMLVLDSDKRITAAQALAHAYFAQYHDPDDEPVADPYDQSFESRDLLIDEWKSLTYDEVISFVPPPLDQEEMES
Phosphatidylethanolamine-binding protein 1, sequence (P30086 whole entry): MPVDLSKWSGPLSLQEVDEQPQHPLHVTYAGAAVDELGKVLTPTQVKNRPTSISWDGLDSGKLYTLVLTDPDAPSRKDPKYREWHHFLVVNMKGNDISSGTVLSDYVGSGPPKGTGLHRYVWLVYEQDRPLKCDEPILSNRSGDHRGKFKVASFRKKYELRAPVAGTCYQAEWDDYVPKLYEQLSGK

`O=C(O)[C@]1(Cc2cccc(Nc3nccs3)n2)CC[C@@H](Oc2cccc(Cl)c2F)CC1` [MK-5108]: the Kd in experiment [1], in experiment [2], in [3], in experiment [4], in experiment [5] and in experiment [6] was > 30 µM (inactive) throughout. In addition, the Kd in [7] was > 30 µM (inactive); in experiment [8], > 30 µM (inactive); in experiment [9] it was 0.388 µM (active); in experiment [10], > 30 µM (inactive); in [11] it was > 30 µM (inactive); in experiment [12] it was > 30 µM (inactive). The Kd in experiment [13] and in experiment [14] was > 30 µM (inactive) throughout.
As to `COc1cc(CCc2cc(NC(=O)c3ccc(N4C[C@@H](C)N[C@@H](C)C4)cc3)n[nH]2)cc(OC)c1` [AZD-4547], the Kd in experiment [15], in experiment [16], in experiment [1], in [2], in experiment [3] and in [5] was > 30 µM (inactive) throughout. In addition, the Kd was > 30 µM (inactive) in experiment [7]; > 30 µM (inactive) in [8]; > 30 µM (inactive) in experiment [17]; 0.029 µM (active) in experiment [9]; > 30 µM (inactive) in experiment [11]; > 30 µM (inactive) in experiment [12]. The Kd in [13], in experiment [14] and in [18] was > 30 µM (inactive) in each case.
For `CN1CC[C@@H](c2c(O)cc(O)c3c(=O)cc(-c4ccccc4Cl)oc23)[C@@H]1CO`, the Kd in experiment [15], in [16], in [1], in [2], in experiment [19] and in [3] was > 30 µM (inactive) each time. Moreover, the Kd in [5] was > 30 µM (inactive); in [8], > 30 µM (inactive); in experiment [17] it was 0.021 µM; in experiment [9], > 30 µM (inactive); in experiment [10] it was > 30 µM (inactive); in [11], > 30 µM (inactive). The Kd in [12], in experiment [13], in experiment [14] and in experiment [18] was > 30 µM (inactive) in each case.
For `O=C(Nc1ccc(-c2ccnc(Nc3ccc(N4CCOCC4)cc3)n2)cc1)C1CCCN1` (centres undefined) [XL-019], the Kd in [15], in experiment [1], in experiment [2], in [19], in experiment [3] and in experiment [4] was > 30 µM (inactive) throughout. Further, the Kd in [5] was > 30 µM (inactive); in experiment [6] it was > 30 µM (inactive); in [8], > 30 µM (inactive); in experiment [17], > 30 µM (inactive); in experiment [9], 1.33 µM (active); in [10] it was > 30 µM (inactive). The Kd in [11], in experiment [12], in [14] and in experiment [18] was > 30 µM (inactive) throughout.
Take `CC[C@@H]1C(=O)N(C)c2cnc(Nc3ccc(C(=O)N[C@H]4CC[C@H](N5CCN(CC6CC6)CC5)CC4)cc3OC)nc2N1C(C)C` [VOLASERTIB]: the Kd in [15], in [16], in experiment [1], in experiment [2], in experiment [19] and in experiment [3] was > 30 µM (inactive) throughout. Besides, the Kd in experiment [4], in experiment [6], in [7], in experiment [8], in [17] and in [9] was > 30 µM (inactive) throughout. For the same molecule, the Kd in experiment [10], in [11], in experiment [12], in experiment [13], in experiment [14] and in experiment [18] was > 30 µM (inactive) in each case.
